Experimental data published in paper PMC8199124, “Design, Synthesis and In-Vitro Biological Evaluation of Antofine and Tylophorine Prodrugs as Hypoxia-Targeted Anticancer Agents” (Molecules, 2021).
Where two headings read alike, the source gives them in different places.

Legend:
[1] = Mouse plasma stability test; format: in vitro ADME; conditions: 37 °C, up to 24 h, read-out: t1/2 (Mouse Plasma) (converted)
Description: (§1) Incubations were carried out in 6 aliquots of 70 μL each in duplicates. […] The reactions were stopped by adding 350 μL of acetonitrile with subsequent plasma proteins sedimentation by centrifuging at 5500 rpm for 5 min. Supernatants were analyzed by LC-MS using Shimadzu VP HPLC system including vacuum degasser, gradient pumps, reverse phase column, column oven and autosampler. The HPLC system was coupled with tandem mass spectrometer API 3000 (PE Sciex, Foster City, CA, USA). Both the positive and negative ion modes of the TurboIonSpray ion source were used. The acquisition and analysis of the data were performed using Analyst 1.5.2 software (PE Sciex, API 3000 mass spectrometer, Foster City, CA, USA). The percentage of the test compounds remaining after incubation in plasma and their half-lives (T1/2) were calculated.

MCF7 = assay: Cytotoxicity (MTT) under normoxia, MCF7; format: cell-based; conditions: Homo sapiens, MCF7, read-out: IC50 MCF7
Description: (§2) The cytotoxicity of the compounds 5a–c and their parent alkaloids was evaluated by the 3-[4,5-dimethylthiazole-2-yl]-2,5-diphenyltetrazolium bromide (MTT) assay against 5 cancerous and 2 non-cancerous cell lines (Table 4).
(§3) The eight cell lines HEK293 (Human embryonic kidney 293), CHO-K1 (Chinese hamster ovary K1), MCF-7 cells (Human breast adenocarcinoma), HCT116 (human colorectal carcinoma), RKO (Human rectal carcinoma), SW480 (human colorectal carcinoma), H460 (Human lung cancer), and MRC5 (Normal human foetal lung fibroblast), were obtained from the ATCC. The cell lines were routinely grown in alpha minimum essential medium (α-MEM) containing 5% foetal calf serum (FCS). The appropriate number of cells (HCT116 = 400 cells/well, H460 cells = 600 cells/well) were seeded into 96-well plates under normoxic or hypoxic conditions. Cells were plated in 100 µL α-MEM containing 10% FCS, 10mM D-Glucose and 0.2mM 2′-deoxycytidine. After incubation for 2 h, the compounds were added at the appropriate concentration and incubated for further 4 h. The cells were then washed three times with drug-free α-MEM (containing 5% FCS and pen/strep). The plates were then incubated for 5 days under normoxic conditions. The cells were stained with sulphorhodamine B to measure total cells. The IC50 was determined by interpolation as the compound concentration reducing staining to 50% of controls on the same plate.

[2] = Human plasma stability test; format: in vitro ADME; conditions: 37 °C, up to 24 h, read-out: t1/2 (Human Plasma) (converted)
Description: as §1

RKO = assay: Cytotoxicity (MTT) under normoxia, RKO; format: cell-based; conditions: Homo sapiens, read-out: IC50 RKO
Description: as §2, §3

[3] = Plasma protein binding (PPB); format: in vitro ADME; conditions: mean ± SE, read-out: PPB (% of Bound Compound) (converted)
Description: The physicochemical properties of the new compounds were evaluated (Table 1).

LogD determination = format: physicochemical; conditions: mean ± SE
Description: (§4) Water solubility, logD, and PAMPA-BBB were evaluated using the protocols we previously described.

MRC5 = assay: Cytotoxicity (MTT) under normoxia, MRC5; format: cell-based; conditions: Homo sapiens, MRC5, read-out: IC50 MRC5
Description: as §2, §3

[4] = Solubility in PBS (pH 7.4); format: physicochemical; conditions: aqueous buffer, mean ± SE
Description: as §4

H460 = assay: Cytotoxicity under normoxia and hypoxia (anaerobic chamber, sulphorhodamine B), H460; format: cell-based, human; conditions: for DR (Deactivation Ratio): DR = IC50 (prodrug)/IC50 (parent drug); for IC50: Homo sapiens, NCI-H460, 4 h exposure, 5 days growth
Description: (§5) We also checked if the designed prodrugs were able to liberate the active alkaloids in hypoxic tumors by testing them under hypoxic conditions using an anaerobic chamber. The three prodrugs 5a–c and their parent alkaloids as well as the reference compounds PR-104A, the parent alcohol form of the phosphate pre-prodrug PR-104, and evofosfamide were tested using the HCT116 and H460 cell lines under both normoxic and hypoxic conditions (Table 5). The prodrugs were much less cytotoxic than the parent drugs, in agreement with our observations using the other cell lines described above (Figure 6).
(§6) The extent to which a prodrug is deactivated relative to its parent drug under normoxic conditions is defined as the Deactivation Ratio (DR). The DR can be simply calculated as DR = IC50 (prodrug)/IC50 (parent drug).
(§7) The efficacy of prodrug activation under hypoxic conditions can be expressed by the Hypoxia Cytotoxicity Ratio (HCR), which can be calculated for a given prodrug as: HCR = normoxic IC50/hypoxic IC50.
as §3

SW480 = assay: Cytotoxicity (MTT) under normoxia, SW480; format: cell-based; conditions: Homo sapiens, SW480, read-out: IC50 SW480
Description: as §2, §3

HCT116 [5] = assay: Cytotoxicity (MTT) under normoxia, HCT116; format: cell-based; conditions: Homo sapiens, HCT-116, read-out: IC50 HCT116
Description: as §2, §3

HCT116 [6] = assay: Cytotoxicity under normoxia and hypoxia (anaerobic chamber, sulphorhodamine B), HCT116; format: cell-based, human; conditions: for DR (Deactivation Ratio): DR = IC50 (prodrug)/IC50 (parent drug); for IC50: Homo sapiens, HCT-116, 4 h exposure, 5 days growth
Description: as §5, §6, §7, §3

[7] = BBB-Parallel Artificial Membrane Permeability Assay (BBB-PAMPA); format: in vitro ADME; conditions: mean ± SE
Description: The physicochemical properties of the new compounds were evaluated (Table 1). […] Consequently, these derivatives lost their BBB penetrability, as predicted by the BBB-Parallel Artificial Membrane Permeability Assay (BBB-PAMPA), whereas their parent alkaloids had free passage through the BBB.
as §4

CHO-K1 = assay: Cytotoxicity (MTT) under normoxia, CHO-K1; format: cell-based, Chinese hamster; conditions: Cricetulus griseus, CHO-K1, read-out: IC50 CHO-K1
Description: as §2, §3

HEK293 = assay: Cytotoxicity (MTT) under normoxia, HEK293; format: cell-based; conditions: Homo sapiens, HEK293, read-out: IC50 HEK293
Description: as §2, §3

in vitro = conditions: male, Balb/c, mouse, pH 7.4; for Kel (elimination rate constant) / metabolized into the parent drug: 2 μM; for metabolized into the parent drug / half-life at 2 μM: microsomes
Description: Mouse hepatic microsomes were isolated from pooled, perfused livers of Balb/c male mice according to the standard protocol. […] Microsomal incubations were carried out in 96-well plates in 5 aliquots of 40 μL each. […] Control incubations were performed by replacing the NADPH-cofactor system with PBS. The additional control incubations in PBS (with 3.3 mM MgCl2) without added microsomes were carried out in this study. […] The incubations were performed in duplicates. Five time points over 40 min had been analyzed. The reactions were stopped by adding 12 volumes of 90% acetonitrile-water to incubation aliquots, followed by protein sedimentation by centrifuging at 5500 rpm for 3 min. The supernatants were analyzed using LC-MS as mentioned above.

[8] = H460, hypoxia, read-out: IC50 (Hypoxia)
[9] = H460, normoxia, read-out: IC50 (Normoxia)
[10] = HCT116, hypoxia, read-out: IC50 (Hypoxia)
[11] = HCT116, normoxia, read-out: IC50 (Normoxia)

SMILES	half-life at 1 μM [1] [h]	IC50 (MCF7) [µM]	half-life at 1 μM [2] [h]	IC50 (RKO) [µM]	fraction unbound [3]	logD (LogD determination)	IC50 (MRC5) [µM]	solubility [4] [µM]	HCR (Hypoxia Cytotoxicity Ratio) (H460)	DR (Deactivation Ratio) (H460; H460, normoxia)	IC50 (H460; [8]) [µM]	IC50 (H460; [9]) [µM]	IC50 (SW480) [µM]	IC50 (HCT116 [5]) [µM]	HCR (Hypoxia Cytotoxicity Ratio) (HCT116 [6])	DR (Deactivation Ratio) (HCT116 [6]; HCT116, normoxia)	IC50 (HCT116 [6]; [10]) [µM]	IC50 (HCT116 [6]; [11]) [µM]	Permeability (Papp) [7]	IC50 (CHO-K1) [µM]	other results
COc1ccc2c3c(c4cc(OC)c(OC)cc4c2c1)C[C@H]1CCC[N+]1(Cc1c([N+](=O)[O-])ncn1C)C3.[Br-] (stereo partly drawn) [Compound 5a, (13aR)-2,3,6-trimethoxy-10-((1-methyl-4-nitro-1H-imidazol-5-yl)methyl)-10,11,12,13,13a,14-hexahydro-9H-dibenzo[f,h]pyrrolo[1,2-b]isoquinolin-10-ium bromide]	[…]	1.53 ± 0.144	145 ± 4.7	2.03 ± 0.267	0.13	[…]	0.327 ± 0.147	154	26	[…]	0.618 ± 0.044	15.8	1.35 ± 0.000126	1.04 ± 0.021	8.8	[…]	0.425 ± 0.051	[…]	[…]	[…]	IC50 (HEK293): 5.08 ± 0.519 µM; Kel (elimination rate constant) (in vitro): […]; metabolized into the parent drug (in vitro): […]; half-life at 2 μM (in vitro): […]
COc1cc2c3c(c4cc(OC)c(OC)cc4c2cc1OC)C[N+]1(Cc2c([N+](=O)[O-])ncn2C)CCC[C@H]1C3.[Br-] (stereo partly drawn) [Compound 5b, (13aS)-2,3,6,7-tetramethoxy-10-((1-methyl-4-nitro-1H-imidazol-5-yl)methyl)-10,11,12,13,13a,14-hexahydro-9H-dibenzo[f,h]pyrrolo[1,2-b]isoquinolin-10-ium bromide]	73 ± 1.7	1.5 ± 0.128	63.3 ± 0.1	4.06 ± 0.181	0.411	0.38 ± 0.04	3.31 ± 0.163	162 ± 3	24	719	3.22 ± 1.07	77.6	7.25 ± 0.49	3.3 ± 1.56	11.3	689	1.46 ± 0.411	4.49 ± 0.698	<−7 Log [10^−6 cm/s]	3.49 ± 0.843	melting point: 165 to 167 °C; IC50 (HEK293): 0.95 ± 0.174 µM; Kel (elimination rate constant) (in vitro): 0.002 ± 0 min⁻¹; metabolized into the parent drug (in vitro): less than 1%; half-life at 2 μM (in vitro): 6.733 ± 0.0533 h
COc1cc2c3c(c4cc(OC)c(OC)cc4c2cc1OC)C[N+]1(Cc2c([N+](=O)[O-])ncn2C)CCC[C@@H]1C3.[Br-] (stereo partly drawn) [Compound 5c, (13aR)-2,3,6,7-tetramethoxy-10-((1-methyl-4-nitro-1H-imidazol-5-yl)methyl)-10,11,12,13,13a,14-hexahydro-9H-dibenzo[f,h]pyrrolo[1,2-b]isoquinolin-10-ium bromide]		8.05 ± 0.343		8.82 ± 3.08			3.94 ± 0.127		7.8	293	6.5 ± 1.81	51	9.86 ± 1.69	9.02 ± 1.13	1.5	128	3.02 ± 0.656	9.05 ± 7.59			melting point: 185 to 187 °C
